Molecules are shown by their SMILES.

For one assay, the target named is T1, human NaPi-IIb (Homo sapiens, UniProt O95436).
T1 construct: expressed in transfected cells
T1 sequence (O95436 1-690): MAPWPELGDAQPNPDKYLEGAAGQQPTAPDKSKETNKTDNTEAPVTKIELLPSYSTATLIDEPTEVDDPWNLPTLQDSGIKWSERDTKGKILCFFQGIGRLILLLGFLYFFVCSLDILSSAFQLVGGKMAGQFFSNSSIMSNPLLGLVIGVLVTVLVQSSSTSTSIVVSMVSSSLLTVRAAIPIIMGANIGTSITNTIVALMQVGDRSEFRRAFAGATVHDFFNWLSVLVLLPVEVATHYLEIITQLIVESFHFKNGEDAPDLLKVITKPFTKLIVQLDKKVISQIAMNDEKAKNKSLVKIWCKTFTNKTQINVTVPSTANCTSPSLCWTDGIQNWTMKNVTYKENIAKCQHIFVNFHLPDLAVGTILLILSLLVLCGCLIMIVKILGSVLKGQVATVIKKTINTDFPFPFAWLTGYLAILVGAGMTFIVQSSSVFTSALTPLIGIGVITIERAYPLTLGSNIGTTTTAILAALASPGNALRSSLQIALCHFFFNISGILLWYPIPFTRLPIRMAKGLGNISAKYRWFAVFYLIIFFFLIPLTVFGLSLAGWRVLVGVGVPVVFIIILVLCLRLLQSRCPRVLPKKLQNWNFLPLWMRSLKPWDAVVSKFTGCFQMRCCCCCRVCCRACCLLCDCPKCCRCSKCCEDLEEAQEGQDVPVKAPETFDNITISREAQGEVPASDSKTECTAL
Kind of assay: Inhibition of 33P uptake in human NaPi-IIb T-REX-CHO stable cell line. Type of assay: cell-based. Conditions: 60 min at RT, geometric mean (SD), read-out: h NaPi-IIb rel IC50 (nM), (SD). The method, then: Inhibition of ^33P uptake is measured in human and mouse NaPi-IIb T-REX™-CHO stable cell lines. cDNA for NaPi-IIb is subcloned in plasmid SLC34A2 pcDNA5/TO (human) and SLC34A2 pcDNA5/TO (mouse) and stable cell lines are generated from clonal isolation for both human and mouse respectively. Mouse and human stable lines are maintained in continuous culture in growth media (Dulbecco's Modified Eagle Medium: Nutrient Mixture F-12 (3:1), 10% Heat Inactivated FBS, 1% penicillin/streptomycin/FUNGIEZONE® (HYCLONE™), 20 mM HEPES, 250 μg/mL hygromycin, 5 μg/mL blasticidin). […] Cell plates may remain in the incubator until ready to be assayed. […] The plate is immediately read on a Wallac MICROBETA® Trilux liquid scintillation counter and luminometer after stop solution is added with 1 minute count per well. […] Percent inhibition at all concentrations tested (final assay concentrations 100-0.005 μM) are calculated relative to 1% DMSO (minimum effect), and the effect of 100 μM of a fully efficacious NaPi-IIb inhibitor (maximum effect). IC50 values were calculated using a 4 parameter logistic curve fitting equation. The numbers presented are the geometric means with standard deviation (SD) calculated where n is the number of runs. […]

Another assay addresses T2, murine NaPi-IIb (Mus musculus, UniProt Q9DBP0).
T2 construct: expressed in transfected cells
T2 sequence (Q9DBP0 1-697): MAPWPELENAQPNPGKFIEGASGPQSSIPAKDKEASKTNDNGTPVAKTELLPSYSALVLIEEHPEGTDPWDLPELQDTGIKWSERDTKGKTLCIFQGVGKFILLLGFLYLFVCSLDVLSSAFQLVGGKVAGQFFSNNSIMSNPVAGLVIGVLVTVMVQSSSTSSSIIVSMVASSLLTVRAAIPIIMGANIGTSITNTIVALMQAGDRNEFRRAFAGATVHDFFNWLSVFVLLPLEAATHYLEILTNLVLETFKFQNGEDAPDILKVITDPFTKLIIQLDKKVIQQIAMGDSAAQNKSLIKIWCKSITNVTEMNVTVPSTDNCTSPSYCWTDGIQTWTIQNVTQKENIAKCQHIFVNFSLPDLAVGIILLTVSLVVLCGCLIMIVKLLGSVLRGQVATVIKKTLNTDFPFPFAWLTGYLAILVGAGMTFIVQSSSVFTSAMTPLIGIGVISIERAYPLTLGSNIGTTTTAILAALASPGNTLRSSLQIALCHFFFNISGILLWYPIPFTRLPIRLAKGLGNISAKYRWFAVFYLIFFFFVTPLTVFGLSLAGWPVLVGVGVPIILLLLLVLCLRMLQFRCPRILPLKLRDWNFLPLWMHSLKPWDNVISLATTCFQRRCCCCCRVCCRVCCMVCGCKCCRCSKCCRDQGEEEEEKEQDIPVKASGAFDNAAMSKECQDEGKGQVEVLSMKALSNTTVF
Kind of assay: Inhibition of 33P uptake in mouse NaPi-IIb T-REX-CHO stable cell line. Conditions: 60 min at RT, geometric mean (SD), read-out: m NaPi-IIb rel IC50 (nM), (SD). Type of assay: cell-based. As for the experimental part: Inhibition of ^33P uptake is measured in human and mouse NaPi-IIb T-REX™-CHO stable cell lines. cDNA for NaPi-IIb is subcloned in plasmid SLC34A2 pcDNA5/TO (human) and SLC34A2 pcDNA5/TO (mouse) and stable cell lines are generated from clonal isolation for both human and mouse respectively. Mouse and human stable lines are maintained in continuous culture in growth media (Dulbecco's Modified Eagle Medium: Nutrient Mixture F-12 (3:1), 10% Heat Inactivated FBS, 1% penicillin/streptomycin/FUNGIEZONE® (HYCLONE™), 20 mM HEPES, 250 μg/mL hygromycin, 5 μg/mL blasticidin). Cells are harvested from T225 cell culture flasks (CORNING®) using 0.25% Trypsin, and plated in 96 well CYTOSTAR-T™ scintillating microplates (Amersham Systems) at 40,000 cells/well in 100 μL of growth media plus 100 ng/mL of tetracycline. Cell plates are incubated overnight at 37° C. and 5% C02. The next day, compounds are serially diluted using one to three dilutions in 100% DMSO. Cell plates may remain in the incubator until ready to be assayed. A cell plate is removed from the incubator and media removed. Cells are washed 3 times with 200 μL assay buffer (137 mM NaCl, 5.4 mM KCl, 2.8 mM CaCl2), 1.2 mM MgSO4, and 14 mM Tris-HCl buffer, pH˜7.5), removing buffer in between washes. Serially diluted compounds in DMSO are further diluted 50 fold in assay buffer and 50 μL added to the CYTOSTAR-T™ assay plate, immediately followed by the addition of 50 μL of ^33P solution (PERKIN-ELMER®, Walton, Mass.; 0.05 μCi/50 μL). CYTOSTAR-T™ assay plates are covered with foil to protect from light and incubated for 60 min at RT. After the 60 min incubation, 100 μL of a stop solution (assay buffer+400 μM Phloretin) is added to the assay plate to stop ^33P uptake. The plate is immediately read on a Wallac MICROBETA® Trilux liquid scintillation counter and luminometer after stop solution is added with 1 minute count per well. Each plate may be processed separately and staggered in time so there may be no delay in counting after stop solution is added. Percent inhibition at all concentrations tested (final assay concentrations 100-0.005 μM) are calculated relative to 1% DMSO (minimum effect), and the effect of 100 μM of a fully efficacious NaPi-IIb inhibitor (maximum effect). IC50 values were calculated using a 4 parameter logistic curve fitting equation. The numbers presented are the geometric means with standard deviation (SD) calculated where n is the number of runs. Thus. Table 1 describes the relative IC50 values for Examples 1-28 against human NaPi-IIb and murine NaPi-IIb, respectively.

As to `CN1CCN(CC(=O)N2C3CCC2CN(Cc2cccc(C(=O)Nc4sc5c(c4C(=O)Nc4cc(F)c(CCc6ccc(C(=O)O)cc6)c(F)c4)CCCC5)c2)C3)CC1` [Example 26, 4-[2-[2,6-difluoro-4-[[2-[[3-[[8-[2-(4-methylpiperazin-1-yl)acetyl]-3,8-diazabicyclo[3.2.1]octan-3-yl]methyl]benzoyl]amino]-4,5,6,7-tetrahydrobenzothiophene-3-carbonyl]amino]phenyl]ethyl]benzoic Acid], the IC50 at human NaPi-IIb turned out to be 2.4 nM; on murine NaPi-IIb it was 15.3 nM.

The values above are taken from US10934280B2, “Condensed thiophene derivatives useful as NaPi-IIb inhibitors” (Eli Lilly and Company, priority 2016, dated 2021).
